Entries after “also recorded” stand apart in the source; their conditions may differ. Like-named read-outs stand apart in the source and are kept apart here. Positions of bridges follow the written chain, without caps; N, C: chain ends. Residues, ends and D or L forms follow the SMILES beside them.
Experiments:
in vitro [1] = assay type: cell-based; conditions: human
Procedure: (§1) N-Ac-CHAVC-NH2 (SEQ ID NO:10) and the control peptide N-Ac-CHGVC-NH2 (SEQ ID NO:20) were evaluated for possible cytotoxic effects on human microvascular endothelial (HMVEC; Clonetics), human umbilical vein endothelial (HUVEC; ATCC #CRL-1730), IAFp2 (human fibroblast cell line; Institute Armand-Frapier, Montreal, Quebec), WI-38 (human fibroblast cell line; ATCC #CCL-75), MDA-MB231 (human breast cancer cell line; ATCC #HTB-26), and PC-3 (human prostate cancer cell line; ATCC #CRL-1435) cells utilizing the MTT assay (Plumb et al., Cancer Res. 49:4435-4440, 1989). Neither of the peptides was cytotoxic at concentrations up to and including 100 μM. Similarly, neither of the peptides was capable of inhibiting the proliferation of the above cell lines at concentrations up to 100 μM, as judged by ^3H-thymidine incorporation assays.

in vitro [2] = assay type: cell-based; conditions: human; remark: listed apart in the source
Procedure: as §1

WI-38 = assay type: cell-based, human; conditions: 3 h
Procedure: as §1

IAFp2 = assay type: cell-based, human; conditions: 3 h
Procedure: as §1

PC-3 [3] = assay type: cell-based, human; conditions: 3 h
Procedure: as §1

HMVEC = assay type: cell-based, human; conditions: 3 h
Procedure: as §1

MDA-MB231 = assay type: cell-based; conditions: human
Procedure: as §1

PC-3 [4] = assay type: cell-based; conditions: human
Procedure: as §1

SKOV3 cells = experiment: Disruption of human ovarian cancer cell (SKOV3) adhesion; assay type: cell-based; conditions: 0.01-1 mg/mL, up to 48 hours
Text: Within one representative cell adhesion assay, the addition of a modulating agent to cells that express a cadherin results in disruption of cell adhesion. A “cadherin-expressing cell,” as used herein, may be any type of cell that expresses at least one cadherin on the cell surface at a detectable level, using standard techniques such as immunocytochemical protocols (Blaschuk and Farookhi, Dev. Biol. 136:564-567, 1989). Cadherin-expressing cells include endothelial (e.g., bovine pulmonary artery endothelial cells), epithelial and/or cancer cells (e.g., the human ovarian cancer cell line SKOV3 (ATCC #HTB-77)). For example, such cells may be plated under standard conditions that permit cell adhesion in the presence and absence of modulating agent (e.g., 500 μg/mL). Disruption of cell adhesion may be determined visually within 24 hours, by observing retraction of the cells from one another.
The human ovarian cancer cell line SKOV3 (ATCC #HTB-77) expresses N-cadherin. SKOV3 cells were cultured in a modified MEM-based media containing 10% FCS. Cells were grown in T-250 culture flasks and maintained by periodic subculturing. Cyclic peptides were tested on cells grown in individual wells of 96-well culture dishes (surface area of each well was 0.32 cm^2). Cells were harvested from flasks and seeded at a density of 50,000 cells per well in 0.1 mL media containing the cyclic peptides at concentrations of 1, 0.1, or 0.01 mg/mL, or in the absence of cyclic peptide. Media control wells were also established. Cultures were evaluated periodically by microscopic examination under both bright field and phase contrast conditions. Cultures were maintained for 48 hours.

in vitro [5] = assay type: cell-based; conditions: human; remark: listed apart in the source
Procedure: as §1

in vitro [6] = assay type: cell-based; conditions: human; remark: listed apart in the source
Procedure: as §1

L1 = L1 (Homo sapiens, UniProt P32004); experiment: L1 response: neurite outgrowth of rat cerebellar neurons on L1 expressing 3T3 cells (Example 14); assay type: cell-based; design: expressed in transfected cells; host or cells: 3T3 cells (stably transfected); conditions: 100 μg/mL, concentrations that substantially inhibited the N-cadherin response
Procedure: FIG. 26 is a bar graph illustrating the effects of the cyclic peptides N-Ac-CHAVDC-NH2 (SEQ ID NO:11), N-Ac-CHAVDIC-NH2 (SEQ ID NO:62) and N-Ac-[…]-NH2 (SEQ ID NO:63) on L1 function. Cerebellar neurons were cultured on monolayers of control 3T3 cells and L1 expressing 3T3 cells for 16-18 hours in control media (unshaded) or control media supplemented with peptides N-Ac-CHAVDC-NH2 (SEQ ID NO:11; diagonal rising right), N-Ac-CHAVDIC-NH2 (SEQ ID NO:62); diagonal cross hatch) or N-Ac-[…]-NH2 (SEQ ID NO:63; diagonal rising left) at a concentration of 100 μg/mL. The cultures were then fixed and neurite outgrowth determined by measuring the length of the longest neurite from a total of 150-200 neurons sampled in replicate cultures for each experimental condition. […] The results are pooled from three independent experiments, and the bars show the s.e.m.
Cell culture and neurite outgrowth assays. Co-cultures of cerebellar neurons on monolayers of control 3T3 cells and monolayers of transfected 3T3 cells that express physiological levels of chick N-cadherin or human L1 were established as previously described (Williams et al., Neuron 13:583-594, 1994). In brief, 80,000 3T3 cells (control and transfected) were plated into individual chambers of an eight-chamber tissue culture slide coated with polylysine and fibronectin and cultured in DMEM/10% FCS. After 24 hours, when confluent monolayers had formed, the medium was removed and 3000 cerebellar neurons isolated from post-natal day 2-3 rats were plated into each well in SATO media (Doherty et al., Nature 343:464-466, 1990) supplemented with 2% FCS. All of the test peptides were added immediately before the neurons as a 2×stock prepared in SATO/2% FCS. […] The mean length of the longest neurite per cell was measured for 150-200 neurons sampled in replicate cultures as previously described (Williams et al., Neuron 13:583-594, 1994). […] Dose-response curves were evaluated and the EC50 values determined. […]

chick N-cadherin = biological target: T1, chick N-cadherin (Gallus gallus, UniProt P10288); experiment: N-cadherin dependent neurite outgrowth of rat cerebellar neurons on N-cadherin expressing 3T3 cells (Example 14); assay type: cell-based
T1 construct: expressed in transfected cells; host or cells: 3T3 fibroblasts
T1 sequence (P10288 165-912): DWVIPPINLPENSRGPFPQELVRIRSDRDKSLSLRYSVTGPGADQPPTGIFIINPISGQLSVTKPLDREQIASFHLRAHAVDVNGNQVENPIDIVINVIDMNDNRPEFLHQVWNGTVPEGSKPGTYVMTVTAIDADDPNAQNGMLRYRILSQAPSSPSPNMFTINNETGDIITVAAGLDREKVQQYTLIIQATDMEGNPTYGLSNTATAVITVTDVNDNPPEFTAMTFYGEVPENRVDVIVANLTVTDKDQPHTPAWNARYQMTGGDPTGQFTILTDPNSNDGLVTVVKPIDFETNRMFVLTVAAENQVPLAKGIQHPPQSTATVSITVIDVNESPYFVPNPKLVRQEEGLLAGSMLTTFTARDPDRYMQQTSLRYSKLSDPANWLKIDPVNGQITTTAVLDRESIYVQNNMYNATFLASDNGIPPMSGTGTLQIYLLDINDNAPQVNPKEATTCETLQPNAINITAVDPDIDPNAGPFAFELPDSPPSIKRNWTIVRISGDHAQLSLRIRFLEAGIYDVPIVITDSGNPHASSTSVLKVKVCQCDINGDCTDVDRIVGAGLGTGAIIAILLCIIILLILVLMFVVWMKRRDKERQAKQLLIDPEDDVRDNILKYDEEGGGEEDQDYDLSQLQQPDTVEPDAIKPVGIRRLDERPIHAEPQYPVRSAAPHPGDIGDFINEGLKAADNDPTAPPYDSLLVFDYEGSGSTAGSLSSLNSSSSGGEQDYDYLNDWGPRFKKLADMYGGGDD
Procedure: Cell culture and neurite outgrowth assays. Co-cultures of cerebellar neurons on monolayers of control 3T3 cells and monolayers of transfected 3T3 cells that express physiological levels of chick N-cadherin or human L1 were established as previously described (Williams et al., Neuron 13:583-594, 1994). In brief, 80,000 3T3 cells (control and transfected) were plated into individual chambers of an eight-chamber tissue culture slide coated with polylysine and fibronectin and cultured in DMEM/10% FCS. After 24 hours, when confluent monolayers had formed, the medium was removed and 3000 cerebellar neurons isolated from post-natal day 2-3 rats were plated into each well in SATO media (Doherty et al., Nature 343:464-466, 1990) supplemented with 2% FCS. All of the test peptides were added immediately before the neurons as a 2×stock prepared in SATO/2% FCS. The co-cultures were maintained for 16-18 hours, at which time they were fixed and immunostained for GAP-43 which is present only in the neurons and delineates the neuritic processes. The mean length of the longest neurite per cell was measured for 150-200 neurons sampled in replicate cultures as previously described (Williams et al., Neuron 13:583-594, 1994). […] Dose-response curves were evaluated and the EC50 values determined.
Effects of cyclic HAV peptides on N-cadherin function. The ability of N-Ac-CHAVC-NH2 (SEQ ID NO:10; compound 1) to inhibit neurite outgrowth was initially tested. This cyclic peptide has the cadherin CAR sequence (HAV) and no flanking amino acid residues. Neurons were cultured on confluent monolayers of control (untransfected) and N-cadherin expressing 3T3 cells for 16-18 hours. The cells were then fixed and the length of the longest neurite on 150-200 neurons was determined by standard assay, as described above. FIG. 24 gives the mean neurite length in a representative experiment where cerebellar neurons have been cultured over control and N-cadherin expressing cells. In the absence of peptide, the mean length of the longest neurite per cell was approximately double on the N-cadherin expressing cells, as compared to 3T3 cells. This response requires N-cadherin function in both the neuron and transfected fibroblast.

L1, sequence (P32004 20-1257): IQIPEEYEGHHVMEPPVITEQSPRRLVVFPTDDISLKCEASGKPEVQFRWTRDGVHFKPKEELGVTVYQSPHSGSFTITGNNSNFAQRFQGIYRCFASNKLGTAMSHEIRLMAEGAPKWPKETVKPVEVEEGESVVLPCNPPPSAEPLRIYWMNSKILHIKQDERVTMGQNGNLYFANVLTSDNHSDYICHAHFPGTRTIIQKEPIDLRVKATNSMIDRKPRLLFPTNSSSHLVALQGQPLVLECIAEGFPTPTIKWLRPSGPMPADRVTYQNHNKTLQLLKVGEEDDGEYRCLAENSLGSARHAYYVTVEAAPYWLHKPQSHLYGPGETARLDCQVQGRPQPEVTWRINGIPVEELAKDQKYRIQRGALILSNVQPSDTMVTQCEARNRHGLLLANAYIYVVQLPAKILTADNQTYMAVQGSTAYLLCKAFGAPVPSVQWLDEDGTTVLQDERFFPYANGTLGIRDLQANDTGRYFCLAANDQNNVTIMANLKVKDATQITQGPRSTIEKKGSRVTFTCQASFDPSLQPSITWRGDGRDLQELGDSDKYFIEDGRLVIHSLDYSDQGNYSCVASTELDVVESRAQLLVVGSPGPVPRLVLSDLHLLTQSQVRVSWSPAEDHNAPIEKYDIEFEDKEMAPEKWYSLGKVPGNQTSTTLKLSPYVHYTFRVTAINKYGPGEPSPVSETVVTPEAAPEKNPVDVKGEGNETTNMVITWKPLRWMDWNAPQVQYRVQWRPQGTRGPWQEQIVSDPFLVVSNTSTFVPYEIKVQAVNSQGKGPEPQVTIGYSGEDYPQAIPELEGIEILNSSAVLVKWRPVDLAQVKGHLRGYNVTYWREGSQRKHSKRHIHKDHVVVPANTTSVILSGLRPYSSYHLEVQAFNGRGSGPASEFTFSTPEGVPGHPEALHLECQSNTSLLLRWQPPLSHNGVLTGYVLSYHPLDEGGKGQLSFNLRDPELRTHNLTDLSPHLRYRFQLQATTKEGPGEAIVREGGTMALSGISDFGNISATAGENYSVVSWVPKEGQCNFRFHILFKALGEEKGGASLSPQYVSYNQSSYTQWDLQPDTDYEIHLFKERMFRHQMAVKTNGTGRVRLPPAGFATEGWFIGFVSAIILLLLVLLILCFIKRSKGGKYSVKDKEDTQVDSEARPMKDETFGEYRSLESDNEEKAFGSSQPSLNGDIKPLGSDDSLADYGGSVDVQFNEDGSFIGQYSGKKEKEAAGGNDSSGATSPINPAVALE

SMILES	IC50 (in vitro [1])	IC50 (in vitro [2])	IC50 (WI-38)	IC50 (IAFp2)	IC50 (PC-3 [3])	IC50 (HMVEC)	IC50 (MDA-MB231)	IC50 (PC-3 [4])	activity on SKOV3 cell adhesion (SKOV3 cells)	IC50 (in vitro [5])	IC50 (in vitro [6])	effect on L1 response (neurite outgrowth over L1 expressing 3T3 cells) (L1)	inhibition at 125 µg/mL (chick N-cadherin; NIH3T3, 125 μg/mL, 16-18 hours)	inhibitory activity on N-cadherin dependent neurite outgrowth, in words (chick N-cadherin; Tables 8 and 9, 250 or 125 μg/mL)	EC50 (chick N-cadherin; from dose-response curve)
CC(=O)N[C@H]1CCCCNC(=O)C[C@@H](C(N)=O)NC(=O)[C@H](C(C)C)NC(=O)[C@H](C)NC(=O)[C@H](Cc2c[nH]cn2)NC1=O (Ac-KHAVD-NH2; lactam 1-5 (inferred))	> 100 µM	> 100 µM	> 100 µM	> 100 µM	> 100 µM	> 100 µM	> 100 µM	> 100 µM	inactive	> 100 µM	> 100 µM				
CC[C@H](C)[C@@H]1NC(=O)[C@H](CC(=O)O)NC(=O)[C@H](C(C)C)NC(=O)[C@H](C)NC(=O)[C@H](Cc2c[nH]cn2)NC(=O)[C@@H](NC(C)=O)CSSC[C@@H](C(N)=O)NC1=O [N-Ac-CHAVDIC-NH2] (Ac-CHAVDIC-NH2; disulfide 1-7)												did not interfere with the ability of neurons to extend neurites over 3T3 cells expressing L1; also recorded: not inhibited	88.3 ± 7.5%	further increased activity; also recorded: potent inhibitors	60 µM
